Experimental data from patent publication US20230203043A1, “NOVEL IMIDAZOPYRAZINE DERIVATIVES” (Hoffmann-La Roche Inc., priority 2020, published 2023).
Structures can show the parent of a compound that is named as a salt.

test system: Acinetobacter baumannii ATCC17961; test: Antimicrobial susceptibility testing: 90% growth inhibitory concentration (IC90) determination in Iso-Sensitest broth, OD600 growth; assay type: cell-based; conditions: Acinetobacter baumannii, ATCC17961, 16 h, strain ATCC 17961, OD600 growth over 16 h, read-out: A. baumannii ATCC 17961 IC90
Procedure, shortened: (§1)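 Growth monitored at 600 nm every 20 min for 16 h at 35±2 °C, inoculum ~5×10^(5) CFU/ml in Iso-Sensitest medium. Compounds in 10-point twofold series, e.g. 50 to 0.097 μM final; 90% inhibitory concentration taken from log-phase growth.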

| Compound | IC90 [nM] |
| --- | --- |
| CCc1cc(Nc2nccn3c(-c4cn(C)nc4C(F)(F)F)cnc23)ccc1C(=O)NCCOCCN [Example 1, N-[2-(2-aminoethoxy)ethyl]-2-ethyl-4-[[3-[1-methyl-3-(trifluoromethyl)pyrazol-4-yl]imidazo[1,2-a]pyrazin-8-yl]amino]benzamide] | 623 |
| NCCNC(=O)CNCCNC(=O)c1ccc(Nc2nccn3c(-c4cn(CC(F)F)nc4C(F)(F)F)cnc23)cc1Cl [Example 820, N-(2-((2-((2-aminoethyl)amino)-2-oxoethyl)amino)ethyl)-2-chloro-4-(3-(1-(2,2-difluoroethyl)-3-(trifluoromethyl)-1H-pyrazol-4-yl)imidazo[1,2-a]pyrazin-8-yl)amino) benzamide formate] | 150 |
| O=C(CNCCNC(=O)c1ccc(Nc2nccn3c(-c4cn(CC(F)F)nc4C(F)(F)F)cnc23)cc1Cl)NC1CNC1 [Example 821, N-(2-((2-(azetidin-3-ylamino)-2-oxoethyl)amino)ethyl)-2-chloro-4-(3-(1-(2,2-difluoroethyl)-3-(trifluoromethyl)-1H-pyrazol-4-yl)imidazo[1,2-a]pyrazin-8-yl)amino) benzamide formate] | 160 |
| O=C(CNCCNC(=O)c1ccc(Nc2nccn3c(-c4cn(CC(F)F)nc4C(F)(F)F)cnc23)cc1Cl)N[C@H]1CCNC1 [Example 822, (S)-2-chloro-4-(3-(1-2,2-difluoroethyl)-3-(trifluoromethyl)-1H-pyrazol-4-yl)imidazo[1,2-a]pyrazin-8-yl)amino)-N-(2-((2-oxo-2-(pyrrolidin-3-ylamino)ethyl) amino)ethyl) benzamide formate] | 150 |
| O=C(CNCCNC(=O)c1ccc(Nc2nccn3c(-c4cn(CC(F)F)nc4C(F)(F)F)cnc23)cc1Cl)N[C@@H]1CCNC1 [Example 823, (R)-2-chloro-4-(3-(1-(2,2-difluoroethyl)-3-(trifluoromethyl)-1H-pyrazol-4-yl)imidazo[1,2-a]pyrazin-8-yl)amino)-N-(2-((2-oxo-2-(pyrrolidin-3-ylamino)ethyl)amino)ethyl) benzamide formate] | 180 |
| NCCCNC(=O)CNCCNC(=O)c1ccc(Nc2nccn3c(-c4cn(CC(F)F)nc4C(F)(F)F)cnc23)cc1Cl [Example 824, N-(2-((2-((3-aminopropyl)amino)-2-oxoethyl)amino)ethyl)-2-chloro-4-(3-(1-2,2-difluoroethyl)-3-(trifluoromethyl)-1H-pyrazol-4-yl)imidazo[1,2-a]pyrazin-8-yl)amino) benzamide formate] | 120 |
| N#CCn1cc(-c2cnc3c(Nc4ccc(C(=O)N[C@H]5[C@@H]6CN(C(=O)N[C@@H]7CNC[C@H]7O)C[C@@H]65)c(Cl)c4)nccn23)c(C(F)(F)F)n1 [Example 825, (1s,5r)-6-[[2-chloro-4-[[3-[1-(cyanomethyl)-3-(trifluoromethyl)pyrazol-4-yl]imidazo[1,2-α]pyrazin-8-yl]amino]benzoyl]amino]-N-[(3R,4R)-4 hydroxypyrrolidin-3-yl]-3-azabicyclo[3.1.0]hexane-3-carboxamide formic acid salt] | 110 |
| NCCCCCCNC(=O)c1ccc(Nc2nccn3c(-c4cn(CC(F)F)nc4C(F)(F)F)cnc23)cc1Cl [Example 826, N-(6-aminohexyl)-2-chloro-4-((3-(1-(2,2-difluoroethyl)-3-(trifluoromethyl)-1H-pyrazol-4-yl)imidazo[1,2-α]pyrazin-8-yl)amino)benzamide hydrochloride] | 110 |
| CCc1cc(Nc2nccn3c(-c4c[nH]nc4C(F)(F)F)cnc23)ccc1C(=O)NCC1CCN(CC2CNC2)C1 (stereo not drawn) [Example 827, N-((1-(azetidin-3-ylmethyl)pyrrolidin-3-yl)methyl)-2-ethyl-4-((3-(3-(trifluoromethyl)-1H-pyrazol-4-yl)imidazo[1,2-α]pyrazin-8-yl)amino)benzamide bis(2,2,2-trifluoroacetate)] | 570 |
| CCc1cc(Nc2nccn3c(-c4cn(CC#N)nc4C(F)(F)F)cnc23)ccc1C(=O)NCC1CCN(CC2CNC2)CC1 [Example 828, N-((1-(azetidin-3-ylmethyl)piperidin-4-yl)methyl)-4-((3-(1-(cyanomethyl)-3-(trifluoromethyl)-1H-pyrazol-4-yl)imidazo[1,2-α]pyrazin-8-yl)amino)-2-ethylbenzamide 2,2,2-trifluoroacetate] | 350 |
| CCc1cc(Nc2nccn3c(-c4cn(CC(F)F)nc4C(F)(F)F)cnc23)ccc1C(=O)NCCCCCN(CC(=O)O)CC1CNC1 [Example 829, 2-[azetidin-3-ylmethyl-[S-[[4-[[3-[1-(2,2-difluoroethyl)-3-(trifluoromethyl)pyrazol-4-yl]imidazo[1,2-α]pyrazin-8-yl]amino]-2-ethyl-benzoyl]amino]pentyl]amino]acetic acid; formic acid] | 720 |
| CCc1cc(Nc2nccn3c(-c4cn(CC#N)nc4C#N)cnc23)ccc1C(=O)NCCOCCN [Example 830, N-(2-(2-aminoethoxy)ethyl)-4-((3-(3-cyano-1-(cyanomethyl)-1H-pyrazol-4-yl)imidazo[1,2-α]pyrazin-8-yl)amino)-2-ethyl-benzamide] | 580 |
| CCc1cc(Nc2nccn3c(-c4cn(CC#N)nc4SC)cnc23)ccc1C(=O)NCCOCCN [Example 831, N-(2-(2-aminoethoxy)ethyl)-4-((3-(1-(cyanomethyl)-3-(methylthio)-1H-pyrazol-4-yl)imidazo[1,2-α]pyrazin-8-yl)amino)-2-ethylbenzamide] | 320 |
| CCc1cc(Nc2nccn3c(-c4cn(CC(F)F)nc4C#N)cnc23)ccc1C(=O)NCCOCCN [Example 832, N-(2-(2-aminoethoxy)ethyl)-4-((3-(3-cyano-1-(2,2-difluoroethyl)-1H-pyrazol-4-yl)imidazo[1,2-α]pyrazin-8-yl)amino)-2-ethylbenzamide] | 480 |
| CCc1cc(Nc2nccn3c(-c4cn(CC#N)nc4Cl)cnc23)ccc1C(=O)NCCOCCN [Example 833, N-(2-(2-aminoethoxy)ethyl)-4-((3-(3-chloro-1-(cyanomethyl)-1H-pyrazol-4-yl)imidazo[1,2-α]pyrazin-8-yl)amino)-2-ethylbenzamide] | 460 |

same assay, conditions: strain ATCC 17961, OD600 growth over 16 h, read-out: A. baumannii ATCC 17961 IC90

| Compound | IC90 [nM] |
| --- | --- |
| CCc1cc(Nc2nccn3c(-c4c[nH]nc4C(F)(F)F)cnc23)ccc1C(=O)NCCOCCN [Example 23, N-[2-(2-aminoethoxy)ethyl]-2-ethyl-4-[[3-[3-(trifluoromeethyl) 1H-pyrazol-4-yl]imidazo[1,2-a]pyrazin-8-yl]amino] benzamide formate] | 128 |
| (3-aminoazetidin- 1-yl)-[2-chloro-4- [[3-[1-(2,2- difluoroethyl)-3- pyrazol-4- yl]imidazo[1,2- a]pyrazin-8- yl]amino]phenyl] methanone [Example 101] | 138 |
| N-[2-(2- aminoethoxy)ethyl]- 2-ethyl-4-[[3- [1- (methoxymethyl)- 3- (trifluoromeethyl) pyrazol-4- yl]imidazo[1,2- a]pyrazin-8- yl]amino] benzamide formate [Example 22] | 1840 |

test system: Acinetobacter baumannii ATCC17968; test: as above; assay type: cell-based; conditions: Acinetobacter baumannii, ATCC 17968 / ATCC 17978, 16 h, read-out: A. baumannii ATCC 17978 IC90 (uM)
Procedure, shortened: as §1

| Compound | IC90 [µM] |
| --- | --- |
| CCc1cc(Nc2nccn3c(-c4cnn(CC(F)F)c4)cnc23)ccc1C(=O)NCCOCCN [Example 21, N-[2-(2-aminoethoxy)ethyl]-4-[[3-[1-(2,2-difluoroethyl)pyrazol-4-yl]imidazo[1,2-a]pyrazin-8-yl]amino]-2-ethylbenzamide formate] | 4.43 |

same assay, conditions: Acinetobacter baumannii, ATCC 17968 / ATCC 17978; strain ATCC 17978; Iso-Sensitest broth, OD600 growth over 16 h; read-out: A. baumannii ATCC 17978 IC90

| Compound | IC90 [µM] |
| --- | --- |
| CCc1cc(Nc2nccn3c(-c4cn(C)nc4C(F)(F)F)cnc23)ccc1C(=O)NCCOCCN [Example 1, N-[2-(2-aminoethoxy)ethyl]-2-ethyl-4-[[3-[1-methyl-3-(trifluoromethyl)pyrazol-4-yl]imidazo[1,2-a]pyrazin-8-yl]amino]benzamide] | 0.93 |

same assay, conditions: strain ATCC 17978; Iso-Sensitest broth, OD600 growth over 16 h; read-out: A. baumannii ATCC 17978 IC90

| Compound | IC90 [µM] |
| --- | --- |
| CCc1cc(Nc2nccn3c(-c4c[nH]nc4C(F)(F)F)cnc23)ccc1C(=O)NCCOCCN [Example 23, N-[2-(2-aminoethoxy)ethyl]-2-ethyl-4-[[3-[3-(trifluoromeethyl) 1H-pyrazol-4-yl]imidazo[1,2-a]pyrazin-8-yl]amino] benzamide formate] | 0.297 |
| N-[2-(2- aminoethoxy)ethyl]- 2-ethyl-4-[[3- [1- (methoxymethyl)- 3- (trifluoromeethyl) pyrazol-4- yl]imidazo[1,2- a]pyrazin-8- yl]amino] benzamide formate [Example 22] | 1.84 |
